Patent US20240124470A1, “FIVE-MEMBERED RING DERIVATIVE AND MEDICAL USE THEREOF” (SICHUAN HAISCO PHARMACEUTICAL CO., LTD., priority 2020, published 2024)
Where two headings read alike, the source gives them in different places.

Columns and labels:
CYP3A4-M = target: T1, CYP3A4-M (Homo sapiens, UniProt P08684); test: Cytochrome P450 isoenzyme inhibition test, human liver microsomes: CYP3A4-M; type: in vitro ADME; details: human liver microsomes 0.1 mg/mL; read-out: IC50, inhibitory activity on CYP3A4-M
T1 construct: pre-incubated with the human liver microsome solutions containing 5 enzyme mixed substrates; from tissue; host or cells: human liver microsomes
Experimental: (§1) 9. Cytochrome P450 Isoenzyme Inhibition Test Experimental objective: The inhibitory effect of the test compound on the activity of human liver microsomal cytochrome P450 isoenzyme (CYP1A2, CYP2C19, CYP2D6 and CYP3A4) was determined. Experimental operation: The test compound at an incubation concentration of 0, 0.03, 0.1, 0.3, 1, 3, 10, 30 and 100 μM was pre-incubated with the human liver microsome solutions containing 5 enzyme mixed substrates (liver microsome concentration: 0.1 mg/mL) in a water bath at 37° C. for 10 min, respectively, and then a coenzyme factor (NADPH) was added to start the reaction. After incubation in a water bath at 37° C. for 10 min, the reaction was terminated by adding glacial acetonitrile solution containing an internal standard, shaken for 1 min, centrifuged at 4° C. and 10,000 rpm for 10 min, and the supernatant was taken for LC/MS/MS analysis. The amount of metabolites produced by each CYP enzyme substrate was detected. The activity of each CYP isoenzyme was reflected by the production rate of each metabolite. […]

[1] = Stability test in mouse liver microsomes; type: in vitro ADME
Experimental: (§2) 3. Stability Test in Mouse Liver Microsomes At 37° C., 1 μM of the test compound was incubated with mouse liver microsomes (0.5 mg/mL) supplemented with NADPH regeneration system for 5, 10, 20, 30 and 60 minutes, and then LC-MS/MS method was used to detect the concentration of the test compound in the generated sample. The half-life (T1/2) and inherent clearance rate (CLint(mic)) of the compound in mouse liver microsome solution were obtained by calculating at the corresponding time points and the remaining percentage of the compound.

CYP1A2 = target: T2, CYP1A2 (Homo sapiens, UniProt P05177); test: Cytochrome P450 isoenzyme inhibition test, human liver microsomes: CYP1A2; type: in vitro ADME; details: human liver microsomes 0.1 mg/mL; read-out: IC50, inhibitory activity on CYP1A2
T2 construct: pre-incubated with the human liver microsome solutions containing 5 enzyme mixed substrates; from tissue; host or cells: human liver microsomes
T2 sequence (P05177 1-516): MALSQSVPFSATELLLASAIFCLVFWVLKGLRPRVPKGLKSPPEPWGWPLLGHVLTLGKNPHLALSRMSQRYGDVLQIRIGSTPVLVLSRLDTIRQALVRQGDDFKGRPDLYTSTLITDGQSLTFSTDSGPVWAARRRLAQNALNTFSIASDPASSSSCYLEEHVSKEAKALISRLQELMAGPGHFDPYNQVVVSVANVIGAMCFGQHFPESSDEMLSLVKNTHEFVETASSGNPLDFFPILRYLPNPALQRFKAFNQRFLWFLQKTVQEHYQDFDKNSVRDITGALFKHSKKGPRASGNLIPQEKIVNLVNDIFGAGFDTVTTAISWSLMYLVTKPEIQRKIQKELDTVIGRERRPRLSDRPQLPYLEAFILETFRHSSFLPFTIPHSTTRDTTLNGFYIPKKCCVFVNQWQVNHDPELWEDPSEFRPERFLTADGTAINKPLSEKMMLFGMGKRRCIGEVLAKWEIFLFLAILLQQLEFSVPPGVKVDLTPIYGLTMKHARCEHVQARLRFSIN
Experimental: as §1

[2] = Stability test in human liver microsomes; type: in vitro ADME
Experimental: as §2, with “7.” for “3.”, “Human” for “Mouse”, “human” for “mouse”

GLP-1 receptor = target: T3, GLP-1 receptor (Homo sapiens, UniProt P43220); test: HEK293/CRE-luc/GLP-1R cell luciferase reporter test (agonistic effect on GLP-1 receptor); type: cell-based; details: HEK293/CRE-luc/GLP-1R cells
T3 construct: expressed in transfected cells
Experimental: 1. HEK293/CRE-luc/GLP-1β cell viability
Cell: HEK293/CRE-luc/GLP-1R
Cell culture medium: DMEM+10% FBS+400 μg/ml G418+100 μg/ml Hygromycin B
Frozen stock solution: 90% FBS, 10% (V/V) DMSO
Detection buffer: DMEM+1% FBS
Cells were cultured in DMEM medium+10% FBS+400 μg/ml G418+100 μg/ml Hygromycin B in a CO2 incubator at 37° C., and passaged once every 3-4 days.
Cell plating: Trypsinization adjusted the cell density to 1.67×10^5 cells/mL; 60 μL of cells per well (10000 cells/well) was inoculated in a 384-well plate containing compounds; A NC well (negative control) and a background well (no cells) were set. Incubation was performed for about 18+2 h in the incubator.
Compounds were serially diluted with the detection buffer, and the detection concentration was 0.01 nM-1000 nM.
The cell culture plate was removed and all supernatant was aspirated from the cells. The cells were washed gently 2 times with 1×PBS.
The diluted compound was added to a 384-well plate (10 μL/well), and three replicate wells were set for each concentration. 10 μL of the detection buffer was added to the NC well, sealed and incubated at 37° C. for 6 hours.
The plate was removed, the cells were allowed to equilibrate to room temperature (at least 15 min), and then all supernatant was aspirated from the cells.
Steady-Glo® Reagent was added to the sample well at 10 μL/well and incubated at room temperature for 5 min to lyse the cells.
The test results were read with a BMG microplate reader.
The mean background value was calculated.
The induction factor (Fold of induction, FI)=(induction well value−background value)/(negative control well value −background value) was calculated.
The EC50 value of the sample was calculated using Graphpad Prim 8.0 software using four-parameter fitting analysis.
Mean and standard error (Mean±SEM) were calculated for all results and Graphpad Prism software was used for statistical analysis. Specific data were presented in the form of graphs. P<0.05 was considered to be statistically different.

T3 sequence (P43220 24-463): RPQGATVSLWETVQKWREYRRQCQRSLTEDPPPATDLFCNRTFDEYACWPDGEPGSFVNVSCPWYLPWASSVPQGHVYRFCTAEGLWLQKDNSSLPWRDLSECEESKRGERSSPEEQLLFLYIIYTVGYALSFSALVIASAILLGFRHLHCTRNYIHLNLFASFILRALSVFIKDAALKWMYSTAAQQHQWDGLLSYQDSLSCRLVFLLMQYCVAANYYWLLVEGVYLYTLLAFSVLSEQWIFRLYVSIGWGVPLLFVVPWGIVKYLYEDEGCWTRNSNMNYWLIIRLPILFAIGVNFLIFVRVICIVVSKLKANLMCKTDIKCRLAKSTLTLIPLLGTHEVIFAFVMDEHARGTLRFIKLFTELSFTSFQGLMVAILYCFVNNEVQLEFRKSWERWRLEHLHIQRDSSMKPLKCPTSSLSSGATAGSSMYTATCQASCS
T1 sequence (P08684 whole entry): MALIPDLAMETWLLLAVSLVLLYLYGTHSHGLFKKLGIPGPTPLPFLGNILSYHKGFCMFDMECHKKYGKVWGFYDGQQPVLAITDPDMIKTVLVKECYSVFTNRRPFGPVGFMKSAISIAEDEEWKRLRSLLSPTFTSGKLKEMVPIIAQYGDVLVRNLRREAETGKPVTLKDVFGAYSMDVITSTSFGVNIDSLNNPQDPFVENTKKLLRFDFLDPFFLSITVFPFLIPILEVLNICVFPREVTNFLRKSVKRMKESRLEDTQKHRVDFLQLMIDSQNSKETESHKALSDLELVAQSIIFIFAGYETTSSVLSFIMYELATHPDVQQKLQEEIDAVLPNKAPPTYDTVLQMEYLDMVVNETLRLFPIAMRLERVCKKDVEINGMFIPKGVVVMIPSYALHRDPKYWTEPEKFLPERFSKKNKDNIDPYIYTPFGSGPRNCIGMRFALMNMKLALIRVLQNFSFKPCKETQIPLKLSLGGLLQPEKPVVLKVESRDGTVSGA

With `N#Cc1ccc(COc2cccc(-c3ccc(Cc4nc5sc(C(=O)O)cc5n4C[C@@H]4CCO4)c(F)c3)n2)c(F)c1` [Compound 6, (S)-2-(4-(6-((4-cyano-2-fluorobenzyl)oxy)pyridin-2-yl)-2-fluorobenzyl)-1-(oxetan-2-ylmethyl)-1H-thieno[2,3-d]imidazole-5-carboxylic acid] the IC50 (CYP3A4-M) was greater than 50 µM, the “T1/2 ratio of compound 6 to compound DZ-6” value ([1]; mouse liver microsomes) was “greater than 2” and the half-life at 1 μM ([1]; mouse liver microsomes 0.5 mg/mL, 1 μM compound, NADPH, 37° C.) was 4.93 h. It also gave a microsomal CLint at 1 μM ([1]; mouse liver microsomes 0.5 mg/mL, 1 μM compound, NADPH, 37° C., read-out: CLint(mic)) of 4.69 µL/min/mg, an IC50 (CYP1A2) greater than 50 µM and a half-life at 1 μM ([2]; human liver microsomes 0.5 mg/mL, 1 μM compound, NADPH, 37° C.) of 9.23 h. The microsomal CLint at 1 μM ([2]; human liver microsomes 0.5 mg/mL, 1 μM compound, NADPH, 37° C., read-out: CLint(mic)) was 2.5 µL/min/mg, the “T1/2 ratio of compound 6 to compound DZ-6” value ([2]; human liver microsomes test (section 7)) was “greater than 3” and the EC50 (GLP-1 receptor; 6 hours incubation, class symbols, read-out: EC50) was less than 0.01 µM. It also gave an EC50 (GLP-1 receptor; bound stated, read-out: EC50 value) of less than 0.01 µM.
